According to article PMC10529594, “Strasseriolides display in vitro and in vivo activity against trypanosomal parasites and cause morphological and size defects in Trypanosoma cruzi” (PLOS Neglected Tropical Diseases, 2023):
Values joined by “and” are separate entries in the source; they are usually repeats but may differ in a detail not shown here. Equal values may be shown once.

Assays:
T. cruzi trypomastigotes = assay: T. cruzi trypomastigote viability / rate of action assay (CellTiter-Glo bioluminescence); type: cell-based, Trypanosoma cruzi; details: for EC50: Trypanosoma cruzi; for Hill slope: Trypomastigotes
Procedure: Tulahuen T. cruzi trypomastigotes were recovered 6 days post infection from the supernatant of harvested infected L6 cells cultures after 3 hours at 37°C. 90 μL of parasite culture at a density of 5 × 10^6 cells in RPMI 1640 media were dispensed into 96 Nunc flat bottom assay plates containing 10 μL of each compound.
Parasite viability was assessed upon 24, 48 and 72 hour incubation at 37°C in 5% CO2 by adding 50 μL of CellTiter-Glo viability reagent to white 96-well microplates. After signal stabilization, bioluminescence was read. Compound concentrations ranged from 0.1 μM to 50 μM and final maximal DMSO percentage in the well was 0.05%. Results were normalized to […] control columns in each plate.

[1] = test system: T. cruzi Tulahuen C4 intracellular amastigotes; assay: β-D-galactosidase transgenic T. cruzi assay (intracellular amastigotes in L6 cells, CPRG); type: cell-based; details: Trypanosoma cruzi
Procedure: The Trypanosoma cruzi Tulahuen strain used is a genetically modified strain that expresses the Escherichia coli β-galactosidase gene, lacZ [31]. It was kindly supplied by Marcel Kaiser (Swiss Tropical and Public Health Institute). The T. cruzi Tulahuen C4 strain was cultured in RPMI-1640 supplemented with 10% inactivated FBS (iFBS), 1.7 mM L-glutamine, 100 U/mL penicillin, and […] at 37°C and 5% CO2. L6 rat skeletal muscle cells were purchased from ATCC (reference CRL-1458) and used as host cells for infection with transgenic T. cruzi trypomastigotes. Epimastigotes were obtained by differentiation in LIT medium with 10% iFBS at 28°C from trypomastigote forms.
A Thermo Scientific Multidrop Combi dispenser was used to dispense 55 μL of T. cruzi infected L6 cells (2 ×10^3 cells per well) into 384-well Corning assay plates already containing 5 μL of each compound at concentrations ranging from 0.0015 to 50 μM and controls. The plates were incubated at 37°C for 96 hours upon which 15 μL of lysis buffer (0.5 mM CPRG, 0.5% NP40) were added to each well and further incubated for 4 hours in the dark. Absorbance at 585 nm was measured in a Perkin Elmer Envision plate reader.

[2] = test system: transgenic Trypanosoma cruzi Brazil strain expressing firefly luciferase; assay: In vivo efficacy, acute T. cruzi infection in BALB/c mice (luciferase imaging); details: 30 mg/kg i.p. 5 days
Procedure: In vivo experiments were performed at the Anti-infectives Screening Core Services facility of the New York University School of Medicine. The transgenic Trypanosoma cruzi Brazil strain expressing firefly luciferase was used. Groups of five female BALB/c mice were infected with 2 × 10^6 T. cruzi trypomastigotes. […] Quantification is based on luciferase activity of the parasites after i.p. injection of 150 mg/Kg D-luciferin potassium-salt in PBS. Luminescence is measured on the fifth day using an IVIS Lumina II imager.

[3] = test system: intracellular T. cruzi amastigotes; assay: Rate of kill, intracellular T. cruzi amastigotes (CPRG, 96-well); type: cell-based, Trypanosoma cruzi; details: Amastigotes; for EC50: Trypanosoma cruzi
Procedure: For rate of kill experiments, in vitro activity against intracellular T. cruzi amastigotes was analyzed at early time points: 24, 48 and 72 hours. The standard colorimetric transgenic assay was established in a 96-well format, with serial dilutions of compounds and 0.05% as the final maximal DMSO percentage per well. In these experiments L6 host cells were included as negative controls and CPRG conversion was monitored at 585 nm using a Versamax microplate reader (Molecular devices).

O=C(Cn1ccnc1[N+](=O)[O-])NCc1ccccc1 [Benznidazole, benznidazole]
RLU Average, trypomastigote viability (T. cruzi trypomastigotes; 24 h, 0.0976562 µM, untreated 165925): 168859 RLU | RLU Average, trypomastigote viability (T. cruzi trypomastigotes; 24 h, 0.195312 µM, untreated 165925): 163337 RLU | RLU Average, trypomastigote viability (T. cruzi trypomastigotes; 24 h, 0.390625 µM, untreated 165925): 166320 RLU | RLU Average, trypomastigote viability (T. cruzi trypomastigotes; 24 h, 0.78125 µM, untreated 165925): 165144 RLU | RLU Average, trypomastigote viability (T. cruzi trypomastigotes; 24 h, 1.5625 µM, untreated 165925): 164063 RLU | RLU Average, trypomastigote viability (T. cruzi trypomastigotes; 24 h, 3.125 µM, untreated 165925): 161383 RLU | RLU Average, trypomastigote viability (T. cruzi trypomastigotes; 24 h, 6.25 µM, untreated 165925): 134179 RLU | RLU Average, trypomastigote viability (T. cruzi trypomastigotes; 24 h, 12.5 µM, untreated 165925): 39621 RLU | RLU Average, trypomastigote viability (T. cruzi trypomastigotes; 24 h, 25 µM, untreated 165925): 10652 RLU | RLU Average, trypomastigote viability (T. cruzi trypomastigotes; 24 h, 50 µM, untreated 165925): 5606 RLU | RLU Average, trypomastigote viability (T. cruzi trypomastigotes; 48 h, 0.0976562 µM, untreated 141819): 139946 RLU | RLU Average, trypomastigote viability (T. cruzi trypomastigotes; 48 h, 0.195312 µM, untreated 141819): 134140 RLU | RLU Average, trypomastigote viability (T. cruzi trypomastigotes; 48 h, 0.390625 µM, untreated 141819): 131074 RLU | RLU Average, trypomastigote viability (T. cruzi trypomastigotes; 48 h, 0.78125 µM, untreated 141819): 112587 RLU | RLU Average, trypomastigote viability (T. cruzi trypomastigotes; 48 h, 1.5625 µM, untreated 141819): 83947 RLU | RLU Average, trypomastigote viability (T. cruzi trypomastigotes; 48 h, 3.125 µM, untreated 141819): 48357 RLU | RLU Average, trypomastigote viability (T. cruzi trypomastigotes; 48 h, 6.25 µM, untreated 141819): 13088 RLU | RLU Average, trypomastigote viability (T. cruzi trypomastigotes; 48 h, 12.5 µM, untreated 141819): 3643 RLU | RLU Average, trypomastigote viability (T. cruzi trypomastigotes; 48 h, 25 µM, untreated 141819): 1831 RLU | RLU Average, trypomastigote viability (T. cruzi trypomastigotes; 48 h, 50 µM, untreated 141819): 1028 RLU | RLU Average, trypomastigote viability (T. cruzi trypomastigotes; 72 h, 0.0976562 µM, untreated 100126): 104132 RLU | RLU Average, trypomastigote viability (T. cruzi trypomastigotes; 72 h, 0.195312 µM, untreated 100126): 98515 RLU | RLU Average, trypomastigote viability (T. cruzi trypomastigotes; 72 h, 0.390625 µM, untreated 100126): 89377 RLU | RLU Average, trypomastigote viability (T. cruzi trypomastigotes; 72 h, 0.78125 µM, untreated 100126): 67508 RLU | RLU Average, trypomastigote viability (T. cruzi trypomastigotes; 72 h, 1.5625 µM, untreated 100126): 34320 RLU | RLU Average, trypomastigote viability (T. cruzi trypomastigotes; 72 h, 3.125 µM, untreated 100126): 15352 RLU | RLU Average, trypomastigote viability (T. cruzi trypomastigotes; 72 h, 6.25 µM, untreated 100126): 4824 RLU | RLU Average, trypomastigote viability (T. cruzi trypomastigotes; 72 h, 12.5 µM, untreated 100126): 2711 RLU | RLU Average, trypomastigote viability (T. cruzi trypomastigotes; 72 h, 25 µM, untreated 100126): 1262 RLU | RLU Average, trypomastigote viability (T. cruzi trypomastigotes; 72 h, 50 µM, untreated 100126): 683 RLU | EC50 (T. cruzi trypomastigotes; 24 h): 8.94 µM | EC50 (T. cruzi trypomastigotes; 48 h): 2.05 µM | EC50 (T. cruzi trypomastigotes; 72 h): 1.15 µM | Hill slope (T. cruzi trypomastigotes; 24 h): 3.93 | Hill slope (T. cruzi trypomastigotes; 48 h): 1.66 | Hill slope (T. cruzi trypomastigotes; 48 h, listed as benznidazole): below 2.1 | Hill slope (T. cruzi trypomastigotes; 72 h): 2.07 | Hill slope (T. cruzi trypomastigotes; 72 h, listed as benznidazole): below 2.1 | inhibition at 0.00152588 µM ([1]; TULAHUEN, L6, T. cruzi amastigotes, 96-hour treatment, 0.00152588 µM, read-out: Growth inhibition (%) Average): 5.83% | inhibition at 0.00305176 µM ([1]; TULAHUEN, L6, T. cruzi amastigotes, 96-hour treatment, 0.00305176 µM, read-out: Growth inhibition (%) Average): 3.46% | inhibition at 0.00610352 µM ([1]; TULAHUEN, L6, T. cruzi amastigotes, 96-hour treatment, 0.00610352 µM, read-out: Growth inhibition (%) Average): 5.29% | inhibition at 0.012207 µM ([1]; TULAHUEN, L6, T. cruzi amastigotes, 96-hour treatment, 0.012207 µM, read-out: Growth inhibition (%) Average): 6.58% | inhibition at 0.0244141 µM ([1]; TULAHUEN, L6, T. cruzi amastigotes, 96-hour treatment, 0.0244141 µM, read-out: Growth inhibition (%) Average): 1.91% | inhibition at 0.0488281 µM ([1]; TULAHUEN, L6, T. cruzi amastigotes, 96-hour treatment, 0.0488281 µM, read-out: Growth inhibition (%) Average): 12.4% | inhibition at 0.0976562 µM ([1]; TULAHUEN, L6, T. cruzi amastigotes, 96-hour treatment, 0.0976562 µM, read-out: Growth inhibition (%) Average): 10.6% | inhibition at 0.195312 µM ([1]; TULAHUEN, L6, T. cruzi amastigotes, 96-hour treatment, 0.195312 µM, read-out: Growth inhibition (%) Average): 16.3% | inhibition at 0.390625 µM ([1]; TULAHUEN, L6, T. cruzi amastigotes, 96-hour treatment, 0.390625 µM, read-out: Growth inhibition (%) Average): 10.8% | inhibition at 0.78125 µM ([1]; TULAHUEN, L6, T. cruzi amastigotes, 96-hour treatment, 0.78125 µM, read-out: Growth inhibition (%) Average): 34.7% | inhibition at 1.5625 µM ([1]; TULAHUEN, L6, T. cruzi amastigotes, 96-hour treatment, 1.5625 µM, read-out: Growth inhibition (%) Average): 74% | inhibition at 3.125 µM ([1]; TULAHUEN, L6, T. cruzi amastigotes, 96-hour treatment, 3.125 µM, read-out: Growth inhibition (%) Average): 104% | inhibition at 6.25 µM ([1]; TULAHUEN, L6, T. cruzi amastigotes, 96-hour treatment, 6.25 µM, read-out: Growth inhibition (%) Average): 101% | inhibition at 12.5 µM ([1]; TULAHUEN, L6, T. cruzi amastigotes, 96-hour treatment, 12.5 µM, read-out: Growth inhibition (%) Average): 103% | inhibition at 25 µM ([1]; TULAHUEN, L6, T. cruzi amastigotes, 96-hour treatment, 25 µM, read-out: Growth inhibition (%) Average): 106% | inhibition at 50 µM ([1]; TULAHUEN, L6, T. cruzi amastigotes, 96-hour treatment, 50 µM, read-out: Growth inhibition (%) Average): 105% | EC50 ([1]; Tulahuen C4 in L6 cells, 96 h, CPRG): 1 µM | Total counts, individual mouse ([2]; 30 mg/kg): 4950000 and 268000 and 48200 and 38100 | Total counts, Average ([2]; vehicle average 8050000): 1330000 | Hill slope ([3]; 24 h): 1.06 | Hill slope ([3]; 48 h): 1.24 | Hill slope ([3]; 72 h): 1.99 | EC50 ([3]; 24 h): 2.87 µM | EC50 ([3]; 48 h): 1.03 µM | EC50 ([3]; 72 h): 0.89 µM
